The values that follow come from patent US10899753B2, “Inhibiting agents for Bruton's tyrosine kinase” (BIOGEN MA INC., priority 2018, dated 2021).

For test [1], the target named is T1, BTK (Homo sapiens (Human), UniProt Q06187). Briefly: In Vitro BTK Kinase Assay: BTK-POLYGAT-LS ASSAY. Format: biochemical. The following applies: fluorescein-labeled polyGAT peptide 100 nM, BTK enzyme 0.25 nM, 30 minutes, TRF. An outline of the steps:
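ATP […] and polyGAT peptide (100 nM), final concentrations, in Tris-HCl pH 7.5 kinase buffer with MgCl2, DTT, Triton X-100 and casein. Reaction run 30 min, stopped with EDTA, then 45 min at room temperature.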

In test [2] the target is T1, BTK. In words: In Vitro PD Assay in Human Whole Blood (pBTK assay). Format: cell-based. The note with it: human heparinized whole blood, 37° C. for 30 min, total BTK capture and phosphotyrosine detection (ECL). An outline of the steps: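 Heparinized human venous whole blood spiked with serially diluted compound (0.1% DMSO final) and incubated 30 min at 37° C. Lysed with protease/phosphatase inhibitors (high control +PPi, low control −PPi lacking phosphatase inhibitors); total BTK captured and phosphotyrosine detected.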

T1 sequence (Q06187 whole entry): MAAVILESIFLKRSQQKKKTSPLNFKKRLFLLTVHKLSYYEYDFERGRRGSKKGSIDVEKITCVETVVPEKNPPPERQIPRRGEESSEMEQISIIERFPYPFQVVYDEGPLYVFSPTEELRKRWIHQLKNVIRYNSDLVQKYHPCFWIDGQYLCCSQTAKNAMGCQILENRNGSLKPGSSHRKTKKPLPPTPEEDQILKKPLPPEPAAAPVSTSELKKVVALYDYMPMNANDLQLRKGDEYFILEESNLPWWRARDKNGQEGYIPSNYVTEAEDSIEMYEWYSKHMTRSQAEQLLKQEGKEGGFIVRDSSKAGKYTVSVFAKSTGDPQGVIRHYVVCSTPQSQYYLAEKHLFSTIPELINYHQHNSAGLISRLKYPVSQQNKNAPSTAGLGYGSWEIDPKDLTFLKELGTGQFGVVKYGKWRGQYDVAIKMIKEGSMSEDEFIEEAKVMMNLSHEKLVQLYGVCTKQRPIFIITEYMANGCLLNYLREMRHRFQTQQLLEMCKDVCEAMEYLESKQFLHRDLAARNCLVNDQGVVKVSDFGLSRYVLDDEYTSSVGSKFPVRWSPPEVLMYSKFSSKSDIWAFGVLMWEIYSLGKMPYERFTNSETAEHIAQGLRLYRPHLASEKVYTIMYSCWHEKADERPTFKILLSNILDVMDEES

Consider `Cc1cc(-c2ncnc(Nc3ccn(C)n3)n2)ccc1CNC(=O)c1cnc(C(C)(C)C)o1` [Compound 3, 2-(tert-butyl)-N-(2-methyl-4-(4-((1-methyl-1H-pyrazol-3-yl)amino)-1,3,5-triazin-2-yl)benzyl)oxazole-5-carboxamide], for which the half-maximal inhibitory concentration (IC50) lay within 1 to 10 nM in test [1] and 500 to 10000 nM in test [2].
For `Cc1c(CNC(=O)c2nc(C3(CF)CC3)no2)ccc(-c2ncnc(Nc3cnn(C)c3)n2)c1F` [Compound 47, N-(3-fluoro-2-methyl-4-(4-((1-methyl-1H-pyrazol-4-yl)amino)-1,3,5-triazin-2-yl)benzyl)-3-(1-(fluoromethyl)cyclopropyl)-1,2,4-oxadiazole-5-carboxamide] the same measures were under 1 nM and under 100 nM.
Taken in the same sequence, the figures for `Cc1cc(-c2ncnc(Nc3cnn(C)c3)n2)ccc1CNC(=O)c1coc(C(C)(C)C)n1` [Compound 107, 2-(tert-butyl)-N-(2-methyl-4-(4-((1-methyl-1H-pyrazol-4-yl)amino)-1,3,5-triazin-2-yl)benzyl)oxazole-4-carboxamide] were under 1 nM and 500 to 10000 nM.
On to `Cc1c(CNC(=O)c2noc(C3(C(F)(F)F)CC3)n2)ccc(-c2ncnc(Nc3ccn(C)n3)n2)c1F` [Compound 52, N-(3-fluoro-2-methyl-4-(4-((1-methyl-1H-pyrazol-3-yl)amino)-1,3,5-triazin-2-yl)benzyl)-5-(1-(trifluoromethyl)cyclopropyl)-1,2,4-oxadiazole-3-carboxamide], for which the IC50 in test [1] fell in the range of 1 to 10 nM; in test [2], 500 to 10000 nM.
On to `Cc1c([C@@H](C)NC(=O)c2nc(C(C)(C)C)no2)ccc(-c2ncnc(Nc3cnn(C)c3)n2)c1F` [Compound 74, (R)-3-(tert-butyl)-N-(1-(3-fluoro-2-methyl-4-(4-((1-methyl-1H-pyrazol-4-yl)amino)-1,3,5-triazin-2-yl)phenyl)ethyl)-1,2,4-oxadiazole-5-carboxamide], for which the IC50 was under 1 nM in test [1] and under 100 nM in test [2].
On to `Cc1c(CNC(=O)c2noc(C3(C)CC3)n2)ccc(-c2ncnc(Nc3ccn(C)n3)n2)c1F` [Compound 113, N-(3-fluoro-2-methyl-4-(4-((1-methyl-1H-pyrazol-3-yl)amino)-1,3,5-triazin-2-yl)benzyl)-5-(1-methylcyclopropyl)-1,2,4-oxadiazole-3-carboxamide], for which the figures for the IC50 in test [1] and in test [2] were under 1 nM and 100 to 500 nM, respectively.
In the case of `Cc1cc(-c2ncnc(Nc3cnn(C)c3)n2)ccc1CNC(=O)c1noc(C2(CF)CC2)n1` [Compound 49, 5-(1-(fluoromethyl)cyclopropyl)-N-(2-methyl-4-(4-((1-methyl-1H-pyrazol-4-yl)amino)-1,3,5-triazin-2-yl)benzyl)-1,2,4-oxadiazole-3-carboxamide], the IC50 in test [1] is under 1 nM; in test [2] it was 100 to 500 nM.
`Cc1cc(-c2ncnc(Nc3ccn(C)n3)n2)ccc1CNC(=O)c1noc(C(C)(C)CF)n1` [Compound 44, 5-(1-fluoro-2-methylpropan-2-yl)-N-(2-methyl-4-(4-((1-methyl-1H-pyrazol-3-yl)amino)-1,3,5-triazin-2-yl)benzyl)-1,2,4-oxadiazole-3-carboxamide]: the half-maximal inhibitory concentration (IC50) was 1 to 10 nM in test [1] and 100 to 500 nM in test [2].
`Cc1cc(-c2ncnc(Nc3cnn(C)c3)n2)c(F)cc1CNC(=O)c1nc(C2(CF)CC2)no1` [Compound 60, N-(5-fluoro-2-methyl-4-(4-((1-methyl-1H-pyrazol-4-yl)amino)-1,3,5-triazin-2-yl)benzyl)-3-(1-(fluoromethyl)cyclopropyl)-1,2,4-oxadiazole-5-carboxamide]: the concentration for half-maximal inhibition (IC50) in test [1] is under 1 nM; in test [2] it was 100 to 500 nM.
On to `Cn1cc(Nc2ncnc(-c3ccc(CNC(=O)c4coc(C(C)(C)C)n4)c(Cl)c3F)n2)cn1` [Compound 103, 2-(tert-butyl)-N-(2-chloro-3-fluoro-4-(4-((1-methyl-1H-pyrazol-4-yl)amino)-1,3,5-triazin-2-yl)benzyl)oxazole-4-carboxamide], for which the IC50 in test [1] is under 1 nM; in test [2], 100 to 500 nM.
With `Cn1ccc(Nc2ncnc(-c3ccc(CNC(=O)c4nc(C(C)(C)C)no4)c(C(F)(F)F)c3F)n2)n1` [Compound 20, 3-(tert-butyl)-N-(3-fluoro-4-(4-((1-methyl-1H-pyrazol-3-yl)amino)-1,3,5-triazin-2-yl)-2-(trifluoromethyl)benzyl)-1,2,4-oxadiazole-5-carboxamide], the half-inhibitory concentration (IC50) was under 1 nM in test [1] and 500 to 10000 nM in test [2].
Taken in the same sequence, the figures for `Cn1cc(Nc2ncnc(-c3ccc(CNC(=O)c4noc(C(C)(C)C)n4)c(Cl)c3F)n2)cn1` [Compound 28, 5-(tert-butyl)-N-(2-chloro-3-fluoro-4-(4-((1-methyl-1H-pyrazol-4-yl)amino)-1,3,5-triazin-2-yl)benzyl)-1,2,4-oxadiazole-3-carboxamide] were under 1 nM and under 100 nM.
For the compound `Cn1cc(Nc2ncnc(-c3ccc(CNC(=O)c4noc(C5(C)CC5)n4)c(Cl)c3F)n2)cn1` [Compound 30, N-(2-chloro-3-fluoro-4-(4-((1-methyl-1H-pyrazol-4-yl)amino)-1,3,5-triazin-2-yl)benzyl)-5-(1-methylcyclopropyl)-1,2,4-oxadiazole-3-carboxamide], the IC50 in test [1] is under 1 nM; in test [2], under 100 nM.
Taken in the same sequence, the figures for `Cn1cc(Nc2ncnc(-c3ccc4c(c3F)CCCC[C@H]4NC(=O)c3noc(C(C)(C)C)n3)n2)cn1` [Compound 88, (R)-5-(tert-butyl)-N-(1-fluoro-2-(4-((1-methyl-1H-pyrazol-4-yl)amino)-1,3,5-triazin-2-yl)-6,7,8,9-tetrahydro-5H-benzo[7]annulen-5-yl)-1,2,4-oxadiazole-3-carboxamide] were under 1 nM and under 100 nM.
As to `Cn1ccc(Nc2ncnc(-c3ccc4c(c3)CCCC[C@H]4NC(=O)c3noc(C(C)(C)C)n3)n2)n1` [Compound 23, 5-tert-butyl-N-[(5R)-2-[4-[(1-methylpyrazol-3-yl)amino]-1,3,5-triazin-2-yl]-6,7,8,9-tetrahydro-5H-benzo[7]annulen-5-yl]-1,2,4-oxadiazole-3-carboxamide], the half-maximal inhibitory concentration (IC50) in test [1] was under 1 nM; in test [2] it was 100 to 500 nM.
For the compound `Cc1c([C@@H](C)NC(=O)c2nc(C(C)(C)C)no2)ccc(-c2ncnc(Nc3ccn(C)n3)n2)c1F` [Compound 72, (R)-3-(tert-butyl)-N-(1-(3-fluoro-2-methyl-4-(4-((1-methyl-1H-pyrazol-3-yl)amino)-1,3,5-triazin-2-yl)phenyl)ethyl)-1,2,4-oxadiazole-5-carboxamide], the figures for the 50% inhibitory concentration (IC50) in test [1] and in test [2] were under 1 nM and 100 to 500 nM, respectively.
As to `Cn1cc(Nc2ncnc(-c3ccc4c(c3)CCCC[C@H]4NC(=O)c3noc(C(C)(C)C)n3)n2)cn1` [Compound 33, 5-tert-butyl-N-[(5R)-2-[4-[(1-methylpyrazol-4-yl)amino]-1,3,5-triazin-2-yl]-6,7,8,9-tetrahydro-5H-benzo[7]annulen-5-yl]-1,2,4-oxadiazole-3-carboxamide], the concentration for half-maximal inhibition (IC50) in test [1] was under 1 nM; in test [2], under 100 nM.
Regarding `Cn1cc(Nc2ncnc(-c3cc4c(cc3F)[C@H](NC(=O)c3noc(C(C)(C)C)n3)CCCC4)n2)cn1` [Compound 86, (R)-5-(tert-butyl)-N-(3-fluoro-2-(4-((1-methyl-1H-pyrazol-4-yl)amino)-1,3,5-triazin-2-yl)-6,7,8,9-tetrahydro-5H-benzo[7]annulen-5-yl)-1,2,4-oxadiazole-3-carboxamide], the IC50 in test [1] is under 1 nM; in test [2] it was under 100 nM.
